Like-named read-outs stand apart in the source and are kept apart here. Marks after values point to notes of the source that are not given here.
Legend:
[1] = test system: Salmonella typhimurium TA98; conditions: for Revertant/plate: TA98 without S9; for Specific mutagenic activity (revertant increase/dose unit): linear regression
human lymphocytes = experiment: Micronucleus (MN) assay, cytokinesis block; type: cell-based
Experimental: The MN assay was performed using blood samples from healthy, nonsmoking males, as provided by the AVIS (Italian Association of Voluntary Blood Donors). […] Cytochalasin-B was added 44 hours after the start of incubation at a final concentration of 6 μg/mL; at 48 hours, the lymphocytes were treated with the different drugs. […] Each treatment was tested with cells from two donors, performed in duplicate separate cultures (i.e., four cultures were set up for each treatment). After incubation, the lymphocytes were collected and resuspended in a mild hypotonic solution (0.075 M KCl) and then added with an ice-cold 5 : 3 acetic acid : methanol solution. After centrifugation (500 g, 10 min), the pellets were resuspended in cold (-20°C) methanol and maintained at -20°C (at least 24 hours). […] Scoring was done using an […] (Munich, Germany) light microscope at 1000X magnification. […] NDI data were analyzed by Student's t-test.

[2] = test system: immortalized lymphocytes (Epstein-Barr virus lymphoblastoid cell line); experiment: Long-term exposure cytotoxicity assay (MTS); type: cell-based, human; conditions: 48 hours treatment
human leukocytes [3] = type: cell-based; conditions: 1 hour treatment, measured immediately after exposure; NFX 0–348 μM, BNZ 0–348 μM, MTZ 0–585 μM
[4] = test system: Salmonella typhimurium TA100; conditions: for Specific mutagenic activity (revertant increase/dose unit): linear regression; for Revertant/plate: TA100 without S9
human leukocytes [5] = experiment: Modified comet assay with ENDOIII for oxidised bases; conditions: 37°C, 1 hour
Experimental: Oxidatively generated damage can be evaluated easily by comparing the DNA migration in enzyme-or buffer-treated samples. The comet assay, with the modification of an extra step after lysis in which DNA is digested with the repair enzyme, was performed according to Collins et al. […] ENDOIII was isolated from bacteria containing over-producing plasmids (Collin's Laboratory, Rowett Research Institute, Bucksburn, Aberdeen, UK). The enzyme-treated gels reveal alkali labile sites and strand breaks (ALS/SB) and oxidised bases (ALS/SB + OX). Assuming a linear dose response, subtraction of (ALS/SB) from (ALS/SB + OX) gives a measure of oxidised bases. The SPSS 11 statistical package was used to analyse statistical differences between samples. Statistical differences between controls and treated samples were first determined with the nonparametric Wilcoxon rank-sum test for each experiment. The mean values from the repeated experiments were used in a one-way analysis of variance. Analysis of variance was followed by single or multiple pairwise comparisons. Data were tested for normality and homogeneity of variance. When these criteria were met, the data were compared using Dunnett's version of the t-test.

[6] = therapeutically treated patients; no reference given; cited from earlier work

Which Revertant/plate ([1]; 15 μg/plate) does the source give for `O=[N+]([O-])c1ccc2c(c1)Cc1ccccc1-2` [2-NF, 2-nitrofluorene] here?
The Revertant/plate was 169 ± 7.

What does the source list for `O=C(Cn1ccnc1[N+](=O)[O-])NCc1ccccc1` [BNZ, N-benzyl-2-(2-nitroimidazol-1-yl)acetamide]?
Effect on MN frequency (human lymphocytes; 24-hours treated lymphocytes): did not alter MN frequency; MN (human lymphocytes; 24h, 3.8 µM): 4.0± 0.5 x10-3 BN; NDI (human lymphocytes; 24h, 3.8 µM): 1.97± 0.11; NDI (%) (human lymphocytes; 24h, 3.8 µM): 94± 5%; MN (human lymphocytes; 24h, 7.7 µM): 3.5± 1.0 x10-3 BN; NDI (human lymphocytes; 24h, 7.7 µM): 1.97± 0.07; NDI (%) (human lymphocytes; 24h, 7.7 µM): 94± 3%; MN (human lymphocytes; 24h, 15.4 µM): 2.5± 0.5 x10-3 BN; NDI (human lymphocytes; 24h, 15.4 µM): 2.00± 0.06; NDI (%) (human lymphocytes; 24h, 15.4 µM): 95± 3%; MN (human lymphocytes; 24h, 30.7 µM): 4.5± 1.0 x10-3 BN; NDI (%) (human lymphocytes; 24h, 30.7 µM): 97± 2%; MN (human lymphocytes; 24h, 61.5 µM): 3.5± 0.5 x10-3 BN; NDI (human lymphocytes; 24h, 61.5 µM): 1.99± 0.07; NDI (%) (human lymphocytes; 24h, 61.5 µM): 95± 3%; MN (human lymphocytes; 24h, 96.1 µM): 3.0± 0.5 x10-3 BN; NDI (human lymphocytes; 24h, 96.1 µM): 2.01± 0.03; NDI (%) (human lymphocytes; 24h, 96.1 µM): 96± 1%; MN (human lymphocytes; 24h, 192.1 µM): 5.0± 1.0 x10-3 BN; NDI (human lymphocytes; 24h, 192.1 µM): 2.07± 0.07; NDI (%) (human lymphocytes; 24h, 192.1 µM): 99± 3%; MN (human lymphocytes; 24h, 384.2 µM): 3.5± 0.5 x10-3 BN; NDI (%) (human lymphocytes; 24h, 384.2 µM): 97± 5%; Effect on MN frequency (human lymphocytes; 72 hours treated lymphocytes): increase of MN frequency; Effect on nuclear division (NDI) (human lymphocytes; 72 hours treated lymphocytes): without some decrease of nuclear division; MN (human lymphocytes; 72 hours, 3.8 μM): 3.5 ± 1.0 ×10^−3 BN; NDI (human lymphocytes; 72 hours, 3.8 μM): 1.93 ± 0.11; NDI (%) (human lymphocytes; 72 hours, 3.8 μM): 100 ± 6%; MN (human lymphocytes; 72 hours, 7.7 μM): 4.0 ± 1.0 ×10^−3 BN; NDI (human lymphocytes; 72 hours, 7.7 μM): 2.00 ± 0.07; NDI (%) (human lymphocytes; 72 hours, 7.7 μM): 104 ± 4%; MN (human lymphocytes; 72 hours, 15.4 μM): 4.0 ± 1.5 ×10^−3 BN; NDI (human lymphocytes; 72 hours, 15.4 μM): 1.98 ± 0.06; NDI (%) (human lymphocytes; 72 hours, 15.4 μM): 102 ± 3%; MN (human lymphocytes; 72 hours, 30.7 μM): 3.5 ± 1.0 ×10^−3 BN; NDI (human lymphocytes; 72 hours, 30.7 μM): 1.99 ± 0.05; NDI (%) (human lymphocytes; 72 hours, 30.7 μM): 103 ± 3%; MN (human lymphocytes; 72 hours, 61.5 μM): 3.0 ± 0.5 ×10^−3 BN; NDI (human lymphocytes; 72 hours, 61.5 μM): 2.06 ± 0.07; NDI (%) (human lymphocytes; 72 hours, 61.5 μM): 107 ± 4%; MN (human lymphocytes; 72 hours, 96.1 μM): 9.0 ± 0.5 ×10^−3 BN; NDI (human lymphocytes; 72 hours, 96.1 μM): 2.05 ± 0.03; NDI (%) (human lymphocytes; 72 hours, 96.1 μM): 106 ± 2%; MN (human lymphocytes; 72 hours, 192.1 μM): 13.0 ± 1.0^b ×10^−3 BN; NDI (human lymphocytes; 72 hours, 192.1 μM): 2.00 ± 0.07; NDI (%) (human lymphocytes; 72 hours, 192.1 μM): 104 ± 4%; MN (human lymphocytes; 72 hours, 384.2 μM): 16.5 ± 0.5^b ×10^−3 BN; NDI (human lymphocytes; 72 hours, 384.2 μM): 1.93 ± 0.10; NDI (%) (human lymphocytes; 72 hours, 384.2 μM): 100 ± 6%; Cytotoxic effect on cultured lymphocytes [2]: did not show any significant effects; Cellular survival rate (human leukocytes [3]): did not appear to be affected; Revertants ([1]; TA98 +S9, 5 µg/plate): 20± 2; Revertants ([1]; TA98 +S9, 10 µg/plate): 18± 2; Revertants ([1]; TA98 +S9, 20 µg/plate): 22± 8; Revertants ([1]; TA98 +S9, 40 µg/plate): 24± 5; Revertants ([1]; TA98 +S9, 80 µg/plate): 23± 4; Revertants ([1]; TA98 +S9, 125 µg/plate): 34± 2; Revertants ([1]; TA98 +S9, 250 µg/plate): 43± 9; Revertants ([1]; TA98 +S9, 500 µg/plate): 44± 6; Revertants ([1]; TA98 -S9, 5 µg/plate): 10± 2; Revertants ([1]; TA98 -S9, 10 µg/plate): 16± 4; Revertants ([1]; TA98 -S9, 20 µg/plate): 14± 6; Revertants ([1]; TA98 -S9, 40 µg/plate): 15± 1; Revertants ([1]; TA98 -S9, 80 µg/plate): 14± 2; Revertants ([1]; TA98 -S9, 125 µg/plate): 26± 3; Revertants ([1]; TA98 -S9, 250 µg/plate): 39± 3; Revertants ([1]; TA98 -S9, 500 µg/plate): 45± 5; Specific mutagenic activity (revertant increase/dose unit) ([1]; TA98 with S9 mix): 0.10 (0.93); Specific mutagenic activity (revertant increase/dose unit) ([1]; TA98 without S9 mix): 0.07 (0.88); Lowest effective dose / concentration significantly increasing the revertant number ([4]; TA100): 5 µg/mL; Revertants ([4]; TA100 +S9, 5 µg/plate): 406± 13; Revertants ([4]; TA100 +S9, 10 µg/plate): 811± 55; Revertants ([4]; TA100 +S9, 20 µg/plate): 1445± 85; Revertants ([4]; TA100 +S9, 40 µg/plate): 3117± 169; Revertants ([4]; TA100 +S9, 80 µg/plate): 4901± 166; Revertants ([4]; TA100 -S9, 5 µg/plate): 498± 25; Revertants ([4]; TA100 -S9, 10 µg/plate): 943± 27; Revertants ([4]; TA100 -S9, 20 µg/plate): 1801± 67; Revertants ([4]; TA100 -S9, 40 µg/plate): 3344± 104; Revertants ([4]; TA100 -S9, 80 µg/plate): 5287± 81; Specific mutagenic activity (revertant increase/dose unit) ([4]; TA100 with S9 mix): 60.92 (0.98); Specific mutagenic activity (revertant increase/dose unit) ([4]; TA100 without S9 mix): 64.96 (0.98); Specific genotoxic activity, DNA migration/dose unit (II: comet assay modified with ENDOIII, DNA oxidative damage) (human leukocytes [5]): 0.9077 (r ^2 = 0.8351) μm/μM

With bleomycin as the molecule, how does the “MN frequency in binucleated cells” value (human lymphocytes; positive control, 6µg/ml) read?
The value was 26.0± 4.0 x10-3 BN.

Which results are given for `NC(=O)C(=Cc1ccc([N+](=O)[O-])o1)c1ccco1` [FYFA, 2-(2-furyl)-3-(5-nitro-2-furyl)acrylamide]?
Revertant/plate ([1]; 20 ng/plate): 189 ± 16; Revertant/plate ([4]; 20 ng/plate): 1133 ± 70

Which “MN frequency in binucleated cells” value (human lymphocytes; male, human, 24 h, 1 μM) does the source give for `CCOS(C)(=O)=O` [ethyl methane sulfonate] here?
The value was 15.0 ± 2.8 ×10^−3 BN.

And the “MN frequency in binucleated cells” value (human lymphocytes; male, human, 24 h, 120 µg/ml)?
The value was 15.0± 2.8 x10-3 BN.

For `Cc1ncc([N+](=O)[O-])n1CCO` [MTZ, 2-(2-methyl-5-nitro-1H-imidazol-1-yl)ethanol], which NDI (human lymphocytes; 24h, 5.9 µM) is on record?
Its NDI is 1.97± 0.07.

And the “NDI (%)” value (human lymphocytes; 24h, 5.9 µM)?
Its value is 100± 4%.

What about the NDI (human lymphocytes; 24h, 11.7 µM) of the same molecule?
Its NDI is 1.97± 0.05.

What about the “NDI (%)” value (human lymphocytes; 24h, 11.7 µM) of the same molecule?
Its value is 100± 3%.

What about the NDI (human lymphocytes; 24h, 46.8 µM) of the same molecule?
Its NDI is 2.01± 0.10.

And the “NDI (%)” value (human lymphocytes; 24h, 46.8 µM)?
Its value is 102± 5%.

And the NDI (human lymphocytes; 24h, 93.6 µM)?
Its NDI is 1.99± 0.04.

What about the “NDI (%)” value (human lymphocytes; 24h, 93.6 µM) of the same molecule?
The value was 101± 2%.

What about the NDI (human lymphocytes; 24h, 146.2 µM) of the same molecule?
Its NDI is 1.97± 0.10.

What about the “NDI (%)” value (human lymphocytes; 24h, 146.2 µM) of the same molecule?
The value was 100± 5%.

What about the NDI (human lymphocytes; 24h, 292.4 µM) of the same molecule?
The NDI was 2.01± 0.03.

And the “NDI (%)” value (human lymphocytes; 24h, 292.4 µM)?
The value was 102± 2%.

And the NDI (human lymphocytes; 24h, 584.8 µM)?
The NDI was 1.94± 0.06.

And the “NDI (%)” value (human lymphocytes; 24h, 584.8 µM)?
Its value is 98± 3%.

What about the NDI (human lymphocytes; 72h, 2.9 µM) of the same molecule?
Its NDI is 1.74± 0.11.

And the “NDI (%)” value (human lymphocytes; 72h, 2.9 µM)?
Its value is 100± 6%.

What about the NDI (human lymphocytes; 72h, 5.9 µM) of the same molecule?
Its NDI is 1.75± 0.17.

And the “NDI (%)” value (human lymphocytes; 72h, 5.9 µM)?
Its value is 101± 10%.

What about the NDI (human lymphocytes; 72h, 11.7 µM) of the same molecule?
The NDI was 1.74± 0.10.

And the “NDI (%)” value (human lymphocytes; 72h, 11.7 µM)?
Its value is 100± 6%.

What about the NDI (human lymphocytes; 72h, 46.8 µM) of the same molecule?
Its NDI is 1.81± 0.09.

What about the NDI (human lymphocytes; 72h, 93.6 µM) of the same molecule?
Its NDI is 1.73± 0.08.

And the “NDI (%)” value (human lymphocytes; 72h, 93.6 µM)?
Its value is 100± 5%.

And the NDI (human lymphocytes; 72h, 146.2 µM)?
Its NDI is 1.84± 0.11.

What about the “NDI (%)” value (human lymphocytes; 72h, 146.2 µM) of the same molecule?
Its value is 106±6%.

What about the NDI (human lymphocytes; 72h, 292.4 µM) of the same molecule?
The NDI was 1.76± 0.07.

And the “NDI (%)” value (human lymphocytes; 72h, 292.4 µM)?
The value was 102± 4%.

What about the NDI (human lymphocytes; 72h, 584.8 µM) of the same molecule?
The NDI was 1.74± 0.12.

And the “NDI (%)” value (human lymphocytes; 72h, 584.8 µM)?
The value was 100± 7%.

And the “Effect on nuclear division (NDI)” value (human lymphocytes; 72 hours treated lymphocytes)?
The value was “did not induce any alteration”.

And the “Cytotoxic effect on cultured lymphocytes” value [2]?
Its value is “did not show any significant effects”.

And the “Plasmatic concentration in treated patients” value [6]?
Its value is 8 to 13 µg/mL.

For `CCN(CC)CCNc1ccc(CO)c2sc3ccccc3c(=O)c12` [HYC, hycantone], which Revertant/plate ([1]; positive control 75 μg/plate) is on record?
The Revertant/plate was 870 ± 90.

And the Revertant/plate ([4]; positive control 75 μg/plate)?
The Revertant/plate was 968 ± 103.

Source: paper PMC2963127, “Genotoxicity Revaluation of Three Commercial Nitroheterocyclic Drugs: Nifurtimox, Benznidazole, and Metronidazole” (Journal of Parasitology Research, 2009)
